From the supplement of paper PMC10307832

What was measured:
Test in all cases: relative viability (nuclei count vs DMSO), 5 days (fraction); higher = more cells survive
XMD13-2 + OSI-027 = compound: C1CC1C(=O)NC2=NNC3=C2C=CC(=C3)C4=CC(=CC=C4)C(=O)NC5CC5 [XMD13-2] + COc1cccc2cc(-c3nc([C@H]4CC[C@H](C(=O)O)CC4)n4ncnc(N)c34)[nH]c12 [OSI-027] (partner 0.5 µM)
Procedure, shortened: (§1)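 Relative viability equals treated-well nuclei counts divided by vehicle-well nuclei counts. Counts came from 4× images of lung cancer cell lines grown in 1536-well plates for 5 days after pin-tool dosing on the day after seeding. Dosing used one drug alone or a fixed anchor-drug dose plus five library-drug doses (not always all listed) in √10 steps, and values are medians of duplicate plates.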

ALW-II-49-7 + Olaparib = compound: Cc1ccc(C(=O)Nc2cccc(C(F)(F)F)c2)cc1Nc1cncc(C(N)=O)c1 [ALW-II-49-7] + O=C(c1cc(Cc2n[nH]c(=O)c3ccccc23)ccc1F)N1CCN(C(=O)C2CC2)CC1 [Olaparib] (partner 8 µM)
Procedure, shortened: as §1

Dasatinib + Bortezomib = compound: Cc1nc(Nc2ncc(C(=O)Nc3c(C)cccc3Cl)s2)cc(N2CCN(CCO)CC2)n1 [Dasatinib] + CC(C)C[C@H](NC(=O)[C@H](Cc1ccccc1)NC(=O)c1cnccn1)B(O)O [Bortezomib] (partner 0.002 µM)
Procedure, shortened: as §1

Dasatinib + Decitabine = compound: Cc1nc(Nc2ncc(C(=O)Nc3c(C)cccc3Cl)s2)cc(N2CCN(CCO)CC2)n1 [Dasatinib] + Nc1ncn([C@H]2C[C@H](O)[C@@H](CO)O2)c(=O)n1 [Decitabine] (partner 2 µM)
Procedure, shortened: as §1

## UMC-11
XMD13-2 + OSI-027; first compound 0.05 µM
  relative viability: 0.438
XMD13-2 + OSI-027; first compound 0.1581 µM
  relative viability: 0.404
XMD13-2 + OSI-027; first compound 0.5 µM
  relative viability: 0.474
XMD13-2 + OSI-027; first compound 1.581 µM
  relative viability: 0.453
XMD13-2 + OSI-027; first compound 5 µM
  relative viability: 0.351
ALW-II-49-7 + Olaparib; first compound 0.08 µM
  relative viability: 0.428
ALW-II-49-7 + Olaparib; first compound 0.253 µM
  relative viability: 0.428
ALW-II-49-7 + Olaparib; first compound 0.8 µM
  relative viability: 0.413
ALW-II-49-7 + Olaparib; first compound 2.53 µM
  relative viability: 0.345
ALW-II-49-7 + Olaparib; first compound 8 µM
  relative viability: 0.342
Dasatinib + Bortezomib; first compound 0.005 µM
  relative viability: 0.668
Dasatinib + Bortezomib; first compound 0.01581 µM
  relative viability: 0.688
Dasatinib + Bortezomib; first compound 0.05 µM
  relative viability: 0.806
Dasatinib + Bortezomib; first compound 0.1581 µM
  relative viability: 0.313
Dasatinib + Bortezomib; first compound 0.5 µM
  relative viability: 0.291
Dasatinib + Decitabine; first compound 0.005 µM
  relative viability: 0.58
Dasatinib + Decitabine; first compound 0.01581 µM
  relative viability: 0.595
Dasatinib + Decitabine; first compound 0.05 µM
  relative viability: 0.532
Dasatinib + Decitabine; first compound 0.1581 µM
  relative viability: 0.292
Dasatinib + Decitabine; first compound 0.5 µM
  relative viability: 0.246
